Test results: article PMC6156138, “Combination of a Latency-Reversing Agent With a Smac Mimetic Minimizes Secondary HIV-1 Infection in vitro” (Frontiers in Microbiology, 2018)

What was measured:
Format in all cases: cell-based
[1] = tested on: latent HIV-1-infected U1 cells; test: HIV reactivation from latent cells: intracellular HIV-1 RNA (qRT-PCR); conditions: 24 h (Figure 1D)
Experimental: The reactivation of HIV-1 from latently infected cells was determined by the measurement of supernatant p24 antigen and intracellular HIV-1 RNA levels. ACH-2 cells or U1 cells (5 × 10^5 cells/mL) were placed in 96-well plates, and then the cells were incubated with different concentrations of drugs for 24 h to extract RNA and for 48 h to collect the supernatant. The increase in supernatant p24 antigen levels was measured using […] G1200 (Fujirebio, Tokyo, Japan). The total RNA was extracted using an RNeasy Mini Kit (Qiagen, Hilden, Germany), following the manufacturer’s protocols. The cDNA was synthesized using PrimeScript RT Master Mix (Takara Bio, Shiga, Japan), and quantitative real-time PCR analyses for the intracellular HIV-1 RNA were carried out with PowerUp^TM SYBR Green Master Mix (Applied Biosystems, Foster City, CA, United States). The oligonucleotide primers used were as follows: 5′-[…]-3′ (forward) and 5′-[…]-3′ (reverse) for HIV-RNA detection; 5′-[…]-3′ (forward) and 5′-[…]-3′ (reverse) for β-actin. The HIV-RNA expressions were normalized with that of β-actin, which was indicated as the relative quantity, and the increase in HIV-1 RNA levels in the presence of a drug was compared with that without a drug.
FIGURE 1 (A,B) The increase in viral production from ACH-2 cells (A) and U1 cells (B) was examined by supernatant p24 antigen levels on day 2. […]

ACH-2 cells = test: Living cell numbers of ACH-2 cells in the presence of drug(s); conditions: birinapant 50 nM; for cell toxicity / replication of ACH-2 cells: PEP005 5 nM (Figure 2C)
Experimental: FIGURE 2 (A) Effect of birinapant when combined with TNF-α. The supernatant p24 levels with birinapant (1∼100 nM) in ACH-2 cell culture on day 2 are shown in white bars, and p24 values with birinapant when combined with TNF-α (10 ng/ml) are shown in black bars. (B) HIV-1 production from ACH-2 cells when reactivated by PEP005 (0.05∼50 nM) for 24 h. (C) Changes in the living cell numbers in the presence of drug(s) on days 1, 3, and 5.

cIAP = test: Determination of cIAP expression (western blotting); conditions: ACH-2 cells, 24 h; birinapant 50 nM, PEP005 5 nM, TNF-α 10 ng/ml
Experimental: ACH-2 cells (1 × 10^6 cells/ml) were treated with different concentrations of the drug for 24 h, and the cells were washed twice with PBS. Cells were homogenized by CelLytic M Cell Lysis Reagent (Sigma-Aldrich, St. Louis, MO, United States) containing a protease inhibitor cocktail (Nacalai Tesque, Kyoto, Japan) and were incubated at room temperature (RT) for 15 min. The cells were then centrifuged at 13,000 rpm for 15 min, and the supernatant of the whole cell lysate was collected. The bicinchoninic acid (BCA) protein assay (Thermo Scientific, Rockford, IL, United States) was used to measure the actual protein amount in the treated and untreated cells. The protein extracts were separated through sodium dodecyl sulfate polyacrylamide gel electrophoresis (SDS-PAGE) and then were blotted onto a Trans Blot Turbo polyvinylidene difluoride (PVDF) membrane (Bio-Rad, Hercules, CA, United States). Protein bands were visualized using 3,3′,5,5′-tetramethylbenzidine (TMB) solution (Wako Pure Chemical). The sources of the antibodies were as follows: c-IAP1 (D5G9), c-IAP2 (58C7), and XIAP (3B6) were purchased from Cell Signaling Technology (Danvers, MA, United States); β-actin (C4) was purchased from Santa Cruz Biotechnology.
Supplementary file Data_Sheet_5.PDF: FIGURE S5 Western blotting (WB) analysis for IAP family proteins in ACH-2 cells. Cells were exposed to birinapant (50 nM) in the presence or absence of PEP005 (5 nM), with TNF-α (10 ng/ml) co-treatment for 24 h, and cell lysates were used for WB analysis. Click here for additional data file.

U1 cells = test: FACS analysis of active caspase-3 expression; conditions: 24 h, birinapant 50 nM, PEP005 5 nM, TNF-α 10 ng/ml
Experimental: Intracellular HIV-1 p24 levels and active form of caspase-3 expression were determined as previously described ([Hattori et al., 2009]; [Duro et al., 2010]; [Matsuda et al., 2015]). In brief, ACH-2 cells or U1 cells (2.5 × 10^5 cells/mL) were fixed with 1% paraformaldehyde/phosphate buffered saline (PBS) for 20 min and were permeabilized with Flow Cytometry Perm Buffer (TONBO biosciences, San Diego, CA, United States). After incubation on ice for 5 min, the cells were stained with anti-HIV-1 p24 (24-4)-FITC mAb (Santa Cruz Biotechnology, Dallas, TX, United States) and/or with Alexa Fluor 647-conjugated anti-active caspase-3 mAb (C92-605) (BD Pharmingen, San Diego, CA, United States) for 30 min on ice. Cells were then analyzed on a BD FACSVerse flow cytometer (BD Biosciences, Franklin Lakes, NJ, United States). The corrected data were analyzed with FlowJo software (Tree Star, San Carlos, CA, United States).
FIGURE 3 (A,B) ACH-2 (A) and U1 cells (B) were treated with birinapant (50 nM), PEP005 (5 nM), birinapant plus PEP005, TNF-α (10 ng/ml), and intracellular expression of caspase-3 was examined after 24 h of incubation. The percentage of active caspase-3 cells was determined by comparison with unstimulated cells. (C) ACH-2 cells after 24 h of PEP005 (0∼50 nM) treatment with or without birinapant (50 nM) were separately analyzed in p24^+ and p24^- populations for caspase-3 expression.

TNF-α = TNF-α production in culture supernatants (ELISA); conditions: ACH-2 cells, PEP005 0–50 nM, 24 h
Experimental: The expression of TNF-α mRNA was measured as previously described ([Zhang et al., 2014]). For the detection of supernatant TNF-α levels, ACH-2 cells (2.5 × 10^5 cells/ml) were incubated with various concentrations of PEP005 (0–50 nM) for 24 h at 37°C. Culture supernatants were harvested and centrifuged to remove cellular debris. The production of TNF-α was measured by using a Human TNF alpha Platinum ELISA Kit (eBioscience, Hatfield, United Kingdom) according to the manufacturer’s instructions. The sensitivity of the assay was 2.3 pg/ml.
Supplementary file Data_Sheet_6.PDF: FIGURE S6 Elevation of supernatant TNF-α protein and mRNA levels in the presence of PEP005. (A) ACH-2 cells were exposed to PEP005, incubated for 24 h, supernatant was harvested, and TNF-α protein levels were measured using ELISA. (B) Changes in mRNA levels of TNF-α in PEP005-treated primary CD4^+ T-cells in eight HIV-1 patients (Supplementary Table S3). Cells were harvested after 24 h incubation. Click here for additional data file.

| Compound | intracellular HIV-1 mRNA levels [1] | cell toxicity / replication of ACH-2 cells (ACH-2 cells) | cIAP expression (western blotting) (cIAP) | number of living cells (ACH-2 cells; day 5, PEP005 5 nM) | percentage of active caspase-3 cells (U1 cells) | supernatant TNF-α level (TNF-α) |
| --- | --- | --- | --- | --- | --- | --- |
| CC[C@H](NC(=O)[C@H](C)NC)C(=O)N1C[C@@H](O)C[C@H]1Cc1c(-c2[nH]c3cc(F)ccc3c2C[C@@H]2C[C@H](O)CN2C(=O)[C@H](CC)NC(=O)[C@H](C)NC)[nH]c2cc(F)ccc12 [Birinapant] | only had a minor effect on HIV-1 reactivation | failed to show cell toxicity | decreased expression of cIAP | – | – | – |
| C/C=C(/C)C(=O)O[C@H]1C(C)=C[C@]23C(=O)[C@@H](C=C(CO)[C@@H](O)[C@]12O)[C@H]1[C@@H](C[C@H]3C)C1(C)C [PEP005, ingenol-3-angelate] | – | strongly inhibited the replication of ACH-2 cells | upregulation of cIAP-1 (and cIAP-2) | 370000 mL⁻¹ | 10.8% | elevated |
